Earlier results on three compounds are cited in patent US7645767B2, “Pharmaceutical compositions for treating chronic pain and pain associated with neuropathy” (Trinity Laboratories, Inc., priority 2006, dated 2010).

Series [1] has as its system complex regional pain syndrome and neuropathic pain.
The conditions of series [2]: for accumulation during multiple dose treatment: multiple dose treatment with tramadol.
In another series the target is μ-opiate receptors (Homo sapiens, UniProt P35372).
μ-opiate receptors, sequence (P35372 whole entry): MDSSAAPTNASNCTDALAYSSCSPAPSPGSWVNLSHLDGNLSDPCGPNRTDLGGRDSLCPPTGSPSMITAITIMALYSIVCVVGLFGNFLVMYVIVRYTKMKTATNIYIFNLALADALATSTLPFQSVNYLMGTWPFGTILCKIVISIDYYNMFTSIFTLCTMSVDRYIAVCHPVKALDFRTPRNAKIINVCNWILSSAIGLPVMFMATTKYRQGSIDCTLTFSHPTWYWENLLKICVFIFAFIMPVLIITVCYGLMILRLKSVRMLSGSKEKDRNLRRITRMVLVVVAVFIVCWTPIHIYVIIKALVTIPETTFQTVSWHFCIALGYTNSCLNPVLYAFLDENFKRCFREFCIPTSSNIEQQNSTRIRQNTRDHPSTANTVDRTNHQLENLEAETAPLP

Each structure is given as a SMILES string.

In the case of `COc1cc(CNC(=O)CCCCC=CC(C)C)ccc1O` [capsaicin, 8-methyl-N-vanillyl-6-nonenamide], the “absorption in the jejunum” value (oral dosing of rats, after 3 hours) is 85%. In addition, the “time to distribution to brain, spinal cord, liver and blood” value (rats, i.v. administration) is no more than 20 min. Besides, the “duration of sustained analgesia” value in series [1] (capsaicin concentration 5-10% under regional anesthesia) was 1 to 8 weeks. Moreover, in series [1] (topical capsaicin trials), the “dropout rates due to burning pain at the site of application” value is listed as 33 to 67%.

As to `CN(C)C[C@H]1CCCC[C@]1(O)c1cccc(O)c1` [O-desmethyltramadol], the “analgesic potency compared with parent drug” value in the series with analgesic effect (relative to tramadol) was “at least twice”. In addition, the half-life in series [2] (after a single oral dose of 100 mg tramadol, 2-compartmental elimination) is 9 h. For the same compound, in series [2], the “accumulation during multiple dose treatment” value is “approximately 2 fold”.

`COc1cccc(C2(O)CCCCC2CN(C)C)c1` (racemic) [tramadol, (+/−)-trans (RR,SS)-2-[(dimethylamino)methyl]-1-(3-methoxyphenyl)cyclohexanol]: in the series with analgesic effect (after a single oral dose of tramadol 100 mg), the “duration of the analgesic effect” value is listed as “about 6 hours”. The “affinity for μ-opiate receptors, fold less than codeine” value on μ-opiate receptors (relative to codeine) is 10 fold. Moreover, the “affinity for μ-opiate receptors, fold less than d-propoxyphene” value on μ-opiate receptors (relative to d-propoxyphene) is on record as 100 fold. In addition, the “affinity for μ-opiate receptors compared with dextromethorphan” value at μ-opiate receptors (relative to dextromethorphan) is “equivalent”. Besides, on μ-opiate receptors (relative to morphine), the “affinity for μ-opiate receptors, fold less than morphine” value is listed as 6,000 fold. Further, the “time to peak serum concentrations” value in series [2] (after oral administration) is no more than 2 h. Also, the “accumulation during multiple dose treatment” value in series [2] is on record as “approximately 2 fold”.

By half-life is commonly meant the time in which the quantity being followed falls by half.
